The subject of one data set is Candida albicans. The experiment in a line: Antifungal broth microdilution (Example 13). In kind it is cell-based. Conditions: Candida albicans, 24 h, read-out: MIC0, C. albicans MMX 7445, FLU-R, VORI-R, complete inhibition.
For the next data set, the system named is Candida spp. The experiment in a line: Broth microdilution MIC (Example 11). The data set is classed as cell-based, C. parapsilosis, C. albicans, C. glabrata, C. tropicalis. (In general: Broth dilution looks for growth in wells or tubes with falling amounts of substance.)
The next data set deals with E. coli ATCC 25922. The experiment in a line: MIC control strain. Conditions: QC organism, Example 13.
For data set [1], the system named is C. parapsilosis ATCC 22019. The experiment in a line: Antifungal broth microdilution (Example 13), QC organism. The data set is classed as cell-based, Candida parapsilosis. Conditions: 24 hr, first of two values x/y (footnote b not given, presumably MIC2).
In data set [2] the test system is MucilAir fully differentiated human airway epithelium.
Data set [3] concerns Pseudomonas aeruginosa. In kind it is in vivo, Sprague Dawley rats. Conditions: rats, single dose of BisEDT, by Day 5. On the procedure: The efficacy of BisEDT in reducing pulmonary bacterial burden associated with pulmonary infection in a rat model of pulmonary Pseudomonas aeruginosa infection was evaluated. The results follow.
Conclusion: Animals were divided into four experiment inhalational treatment groups: 1) Group 1, a negative control group treated with saline on Days 0, 2, and 4; 2) Group 2, a positive control group treated with tobramycin (target of 20 mg/kg, BID, Days 1-4); 3) Group 3, BisEDT (target of 0.1 mg/kg, QD, Days 0, 2, 4); and Group 4, BisEDT (target of 0.25 mg/kg, once, Day −1). Animals were further divided into two cohorts, separated by one day, to accommodate the challenge and treatment of the number of animals. All animals were exposed per protocol except Group 1 and 3, cohort 2. These animals were exposed on Days 0, 1, and 4 instead of on Days 0, 2, 4.
An in vivo efficacy study was designed to assess the efficacy of inhaled BisEDT in a chronic model of P. aeruginosa pulmonary infection. […] Animals were euthanized at Study Day 3 and 5 and assessed for level of pulmonary bacterial burden. […]

Data set [4] deals with Pseudomonas aeruginosa. Put plainly: Broth microdilution MIC (Example 12). In kind it is cell-based.
The test system of the next data set is P. aeruginosa. Put plainly: Broth microdilution MIC (Example 10). The data set is classed as cell-based, Pseudomonas aeruginosa. As to conditions: initial MIC testing.

Experimental findings from patent US20230124862A1, “BISMUTH THIOL COMPOUNDS AND COMPOSITIONS AND METHODS OF TREATING MICROBIAL CO-INFECTIONS” (Microbion Corporation, priority 2020, published 2023) are described below.

Values after ≈ are worked out from the molar mass of the structure shown. Where two headings read alike, the source gives them in different places. Marks after values point to notes of the source that are not given here. Where only a bound is given, the exact number is not on record here.

As for `CC(S)C(C)S.[Bi]` (stereo not drawn) [BisBDT, bismuth-2,3-butanedithiol], the MIC with Candida albicans came out at 2 µg/mL; against Candida spp. (24 h, C. albicans MMX 7039, Sensitive, incubation 24 hr) it was 2 µg/mL; in the data set with Candida spp. (24 h, C. albicans MMX 7055, Sensitive, incubation 24 hr) it was 2 µg/mL; in the data set with Candida spp. (24 h, C. glabrata MMX 7318, FLU^R, incubation 24 hr), 0.25 µg/mL; with Candida spp. (24 h, C. glabrata miX 7086, FLU^R, incubation 24 hr), 0.5 µg/mL; against Candida spp. (24 h, C. parapsilosis MMX 2323 (ATCC 22019), QC, incubation 24 hr), 0.5 µg/mL. In addition, the MIC in the data set with Candida spp. (24 h, C. tropicalis MMX 7247, FLU^R, incubation 24 hr) is 4 µg/mL; against Candida spp. (24 h, C. tropicalis MMX 7248, FLU^R, incubation 24 hr) it was 4 µg/mL; against Candida spp. (24 h, C. tropicalis MMX 7360, FLU^R, incubation 24 hr), 2 µg/mL; against Candida spp. (48 h, C. albicans MMX 7039, Sensitive, incubation 48 hr) it was 2 µg/mL; with Candida spp. (48 h, C. albicans MMX 7055, Sensitive, incubation 48 hr), 2 µg/mL; against Candida spp. (48 h, C. glabrata MMX 7318, FLU^R, incubation 48 hr) it was 0.5 µg/mL. Besides, the MIC with Candida spp. (48 h, C. glabrata miX 7086, FLU^R, incubation 48 hr) is 1 µg/mL; with Candida spp. (48 h, C. parapsilosis MMX 2323 (ATCC 22019), QC, incubation 48 hr), 1 µg/mL; against Candida spp. (48 h, C. parapsilosis MMX 7370, FLU^R, incubation 48 hr) it was 0.5 µg/mL; against Candida spp. (48 h, C. parapsilosis MMX 7555, FLU^R, incubation 48 hr), 0.5 µg/mL; against Candida spp. (48 h, C. tropicalis MMX 7247, FLU^R, incubation 48 hr), 4 µg/mL; in the data set with Candida spp. (48 h, C. tropicalis MMX 7248, FLU^R, incubation 48 hr) it was 8 µg/mL. Also, the MIC against Candida spp. (48 h, C. tropicalis MMX 7360, FLU^R, incubation 48 hr) came to 2 µg/mL. For the same compound, the “MIC 24 hr” value against E. coli ATCC 25922 is 0.5^a; in data set [1] it was 1 µg/mL.
As for `C1C[S][Bi]([S]CC[S][Bi]2[S]CC[S]2)[S]1` [BisEDT, Bismuth-1,2-ethanedithiol], the TEER result in data set [2] (BisEDT in solution 0.001-30 μM, all time points) is on record as “didn't show significant effect”; in data set [2] (solid, 1 μg/cm^2, 8, 24 and 48H) it was “Loss of tissue integrity”; in data set [2] (solid, 1 μg/cm^2, 1 hour), “no significant effect”; in data set [2] (solid, 0.033 and 0.33 μg/cm^2, all time points), “No significant effect”; in data set [2] (solid, all tested doses, 1 hour exposure), “no significant effect”. In addition, in the data set on Pseudomonas aeruginosa [3], the “efficacy vs tobramycin positive control group” value is reported as “not significantly different”.
In the case of `C[C@@H](O)[C@H]1C(=O)N2C(C(=O)O)=C(S[C@@H]3CN[C@H](C(=O)N(C)C)C3)[C@H](C)[C@H]12` [MEM], the MIC is 0.25 µg/mL (≈ 0.652 µM) against Pseudomonas aeruginosa [4] (P. aeruginosa ATCC 27853, ATCC QC organism (Table 102)); >8 µg/mL against Pseudomonas aeruginosa [4] (P. aeruginosa CDC 230, VIM/OXA); >8 µg/mL against Pseudomonas aeruginosa [4] (P. aeruginosa CDC 231, KPC/OXA); >8 µg/mL in the data set with Pseudomonas aeruginosa [4] (P. aeruginosa CDC 241, IMP/OXA); >8 µg/mL in the data set on Pseudomonas aeruginosa [4] (P. aeruginosa CDC 246, NDM/OXA); >8 µg/mL in the data set with Pseudomonas aeruginosa [4] (P. aeruginosa CDC 250, NDM/OXA). In addition, the MIC with Pseudomonas aeruginosa [4] (P. aeruginosa CDC 356, KPC) was >8 µg/mL; with Pseudomonas aeruginosa [4] (P. aeruginosa CDC 439, IMP), >8 µg/mL; against Pseudomonas aeruginosa [4] (P. aeruginosa CDC 444, VIM), >8 µg/mL; against Pseudomonas aeruginosa [4] (P. aeruginosa CDC 457, VIM), >8 µg/mL; in the data set with Pseudomonas aeruginosa [4] (P. aeruginosa CDC 516, KPC/AmpC), >8 µg/mL; against Pseudomonas aeruginosa [4] (P. aeruginosa CDC 518, KPC/AmpC) it was >8 µg/mL. Further, the MIC with P. aeruginosa (P. aeruginosa isolate 103, QC strain) came to 1 µg/mL (≈ 2.61 µM); against P. aeruginosa (P. aeruginosa isolate 1497 (TOB-R AMK-R, CIP-I, AZT-R, COL-R)), 0.06 µg/mL (≈ 0.156 µM); with P. aeruginosa (P. aeruginosa isolate 1530 (TOB-R, AMK-R, CIP-R)), 0.5 µg/mL (≈ 1.3 µM); in the data set with P. aeruginosa (P. aeruginosa isolate 1553 (TOB-R, AMK-R, CIP-R)), 0.5 µg/mL (≈ 1.3 µM); against P. aeruginosa (P. aeruginosa isolate 6322 (MEM-R, TOB-R, AMK-R, CIP-R, AZT-R)), 16 µg/mL (≈ 41.7 µM); against P. aeruginosa (P. aeruginosa isolate 6977 (MEM-I, TOB-R, CIP-R, AZT-I)) it was 4 µg/mL (≈ 10.4 µM). Also, the MIC is 16 µg/mL (≈ 41.7 µM) in the data set on P. aeruginosa (P. aeruginosa isolate 7745 (MEM-R, CIP-R, AZT-R)); 32 µg/mL (≈ 83.4 µM) with P. aeruginosa (P. aeruginosa isolate 7754 (MEM-R, TOB-R, CIP-R, AZT-I)); 4 µg/mL (≈ 10.4 µM) in the data set on P. aeruginosa (P. aeruginosa isolate 7762 (MEM-I, CIP-I)); 8 µg/mL (≈ 20.9 µM) in the data set with P. aeruginosa (P. aeruginosa isolate 7871 (MEM-R, AZT-I)); 1 µg/mL (≈ 2.61 µM) in the data set with P. aeruginosa (P. aeruginosa isolate 7874); 32 µg/mL (≈ 83.4 µM) in the data set with P. aeruginosa (P. aeruginosa isolate 7886 (MEM-R, CIP-R, AZT-R)). The MIC is 32 µg/mL (≈ 83.4 µM) against P. aeruginosa (P. aeruginosa isolate 8797 (MEM-R, TOB-R, AMK-R, CIP-R, AZT-R, COL-R)); 64 µg/mL (≈ 167 µM) with P. aeruginosa (P. aeruginosa isolate 8798 (MEM-R, TOB-R, AMK-R, CIP-R, AZT-R, COL-R)); 0.5 µg/mL (≈ 1.3 µM) in the data set with P. aeruginosa (P. aeruginosa isolate 9108 (CIP-R, AZT-I)).
